Measured values published in US11286243B2 (GLOBAL BLOOD THERAPEUTICS, INC., priority 2018, dated 2022).

molecular target: T1, human ferroportin (Homo sapiens, UniProt Q9NP59); test: In-vitro ferroportin internalization assay (luciferase reporter); assay type: cell-based; conditions: average pEC50; stably-transfected CHO cell line expressing human ferroportin tagged to a luciferase reporter; 6 h incubation with test compounds
T1 construct: luciferase reporter (probably NanoLuc: read with the Nano-Glo Luciferase Assay System); expressed in transfected cells; host or cells: CHO cells, stably transfected, doxycycline-inducible expression
T1 sequence (Q9NP59 1-571): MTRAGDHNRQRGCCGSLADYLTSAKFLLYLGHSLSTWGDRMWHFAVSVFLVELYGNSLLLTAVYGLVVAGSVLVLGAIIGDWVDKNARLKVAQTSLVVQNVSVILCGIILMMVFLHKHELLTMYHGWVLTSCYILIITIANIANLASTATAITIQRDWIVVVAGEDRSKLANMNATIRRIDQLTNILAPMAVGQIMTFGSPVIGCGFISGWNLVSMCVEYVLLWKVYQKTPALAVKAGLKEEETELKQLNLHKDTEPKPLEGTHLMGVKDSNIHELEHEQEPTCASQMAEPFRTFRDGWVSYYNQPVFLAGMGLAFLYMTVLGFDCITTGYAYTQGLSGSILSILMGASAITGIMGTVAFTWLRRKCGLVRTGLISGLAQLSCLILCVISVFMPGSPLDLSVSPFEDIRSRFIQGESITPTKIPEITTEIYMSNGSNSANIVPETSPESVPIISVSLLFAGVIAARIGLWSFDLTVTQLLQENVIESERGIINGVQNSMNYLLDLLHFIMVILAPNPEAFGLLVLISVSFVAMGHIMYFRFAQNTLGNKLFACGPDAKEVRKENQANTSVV
Experimental: The protocol for this assay is generally as described in WO2018/128828, incorporated herein by reference in its entirety. Functional internalization of ferroportin protein was measured using a stably-transfected CHO cell line expressing the human ferroportin tagged to a luciferase reporter. Cells were plated for 24 h in the presence of ferric ammonium citrate (FAC). Ferroportin protein expression was induced with doxycycline for 24 h. The next day, the compounds were added. Test compounds were dissolved in DMSO. Cells were incubated with the test compounds for 6 h, and subsequently luciferase activity was measured using the Nano-Glo Luciferase Assay System and Glomax (Promega, Madison, Wis.).
The average pEC50 was determined for the test compounds.

Point of comparison: `Fc1cccnc1CNc1nccc2oc([C@H](F)CNCCc3nc4ccccc4[nH]3)nc12` [Compound 74, 2-[(1R)-2-{[2-(1H-1,3-benzodiazol-2-yl)ethyl]amino}-1-fluoroethyl]-N-[(3-fluoropyridin-2-yl)methyl]-[1,3]oxazolo[4,5-c]pyridin-4-amine], pEC50 6.9. Against it:
- Oc1cccc(CNCCc2nc3c(NCc4ncccc4F)nccc3o2)c1 [Compound 54, 3-({[2-(4-{[(3-fluoropyridin-2-yl)methyl]amino}-[1,3]oxazolo[4,5-c]pyridin-2-yl)ethyl]amino}methyl)phenol] — lower, 5.1
- Cc1nc(CCNCCc2nc3c(NCc4ncccc4F)ncnc3s2)[nH]c1C [Compound 55, 2-(2-{[2-(4,5-dimethyl-1H-imidazol-2-yl)ethyl]amino}ethyl)-N-[(3-fluoropyridin-2-yl)methyl]-[1,3]thiazolo[5,4-d]pyrimidin-7-amine] — higher, 7.6
- Cc1cnc(CCNCCc2nc3c(NCc4ncccc4F)nccc3o2)[nH]1 [Compound 56, N-[(3-fluoropyridin-2-yl)methyl]-2-(2-{[2-(5-methyl-1H-imidazol-2-yl)ethyl]amino}ethyl)-[1,3]oxazolo[4,5-c]pyridin-4-amine] — lower, 6.7
- Fc1cccnc1CNc1nccc2oc(CCNCCc3ncc(C(F)(F)F)[nH]3)nc12 [Compound 57, N-[(3-fluoropyridin-2-yl)methyl]-2-[2-({2-[5-(trifluoromethyl)-1H-imidazol-2-yl]ethyl}amino)ethyl]-[1,3]oxazolo[4,5-c]pyridin-4-amine] — lower, 5.4
- Fc1cccnc1CNc1nccc2oc(CCNCCc3ncc[nH]3)nc12 [Compound 58] — lower, 5.7
- Oc1cc2oc(CCNCCc3nc4ccccc4[nH]3)nc2c(NCc2ncccc2F)n1 [Compound 59, 2-(2-{[2-(1H-1,3-benzodiazol-2-yl)ethyl]amino}ethyl)-4-{[(3-fluoropyridin-2-yl)methyl]amino}-[1,3]oxazolo[4,5-c]pyridin-6-ol] — lower, 6.2
- Fc1cccnc1CNc1ncnc2sc(CCNCCc3ncc(-c4cccnc4)[nH]3)nc12 [Compound 60, N-[(3-fluoropyridin-2-yl)methyl]-2-[2-({2-[5-(pyridin-3-yl)-1H-imidazol-2-yl]ethyl}amino)ethyl]-[1,3]thiazolo[5,4-d]pyrimidin-7-amine] — lower, 5.8
- CC(CNCCc1nc2c(NCc3ncccc3F)nccc2o1)c1nc2ccccc2[nH]1 (stereo not shown) [Compound 61, 2-(2-{[2-(1H-1,3-benzodiazol-2-yl)propyl]amino}ethyl)-N-[(3-fluoropyridin-2-yl)methyl]-[1,3]oxazolo[4,5-c]pyridin-4-amine] — the same, 6.9
- Fc1cccnc1CNc1nccc2oc(CCNCCc3ncc(Cc4ccccc4)[nH]3)nc12 [Compound 62] — higher, 7.7
- Fc1cccnc1CNc1nccc2oc(CCNCCc3ncc(CC4CC4)[nH]3)nc12 [Compound 63, 2-[2-({2-[5-(cyclopropylmethyl)-1H-imidazol-2-yl]ethyl}amino)ethyl]-N-[(3-fluoropyridin-2-yl)methyl]-[1,3]oxazolo[4,5-c]pyridin-4-amine] — lower, 5.1
- Cc1nc(CCNCCc2nc3c(NCc4ncccc4F)ncnc3s2)[nH]c1-c1ccccc1 [Compound 64, N-[(3-fluoropyridin-2-yl)methyl]-2-(2-{[2-(4-methyl-5-phenyl-1H-imidazol-2-yl)ethyl]amino}ethyl)-[1,3]thiazolo[5,4-d]pyrimidin-7-amine] — within 0.2 log units, 7
- Fc1cccnc1CNc1ncnc2sc(CCNCCc3ncc(-c4ccccn4)[nH]3)nc12 [Compound 65, N-[(3-fluoropyridin-2-yl)methyl]-2-[2-({2-[5-(pyridin-2-yl)-1H-imidazol-2-yl]ethyl}amino)ethyl]-[1,3]thiazolo[5,4-d]pyrimidin-7-amine] — lower, 6.2
- Fc1cccc(-c2cnc(CCNCCc3nc4c(NCc5ncccc5F)ncnc4s3)[nH]2)c1 [Compound 67, 2-[2-({2-[5-(3-fluorophenyl)-1H-imidazol-2-yl]ethyl}amino)ethyl]-N-[(3-fluoropyridin-2-yl)methyl]-[1,3]thiazolo[5,4-d]pyrimidin-7-amine] — lower, 6.2
- Fc1ccc(-c2cnc(CCNCCc3nc4c(NCc5ncccc5F)ncnc4s3)[nH]2)cc1 [Compound 68, 2-[2-({2-[5-(4-fluorophenyl)-1H-imidazol-2-yl]ethyl}amino)ethyl]-N-[(3-fluoropyridin-2-yl)methyl]-[1,3]thiazolo[5,4-d]pyrimidin-7-amine] — lower, 5.8
- Cc1ncc(-c2cc(CNCCc3nc4c(NCc5ncccc5F)ncnc4s3)c(Cl)s2)[nH]1 [Compound 69, 2-[2-({[2-chloro-5-(2-methyl-1H-imidazol-5-yl)thiophen-3-yl]methyl}amino)ethyl]-N-[(3-fluoropyridin-2-yl)methyl]-[1,3]thiazolo[5,4-d]pyrimidin-7-amine] — lower, 5.2
- Cc1nc(-c2ccc(Cl)s2)c(CNCCc2nc3c(NCc4ncccc4F)ncnc3s2)[nH]1 [Compound 70, 2-[2-({[4-(5-chlorothiophen-2-yl)-2-methyl-1H-imidazol-5-yl]methyl}amino)ethyl]-N-[(3-fluoropyridin-2-yl)methyl]-[1,3]thiazolo[5,4-d]pyrimidin-7-amine] — lower, 5.6
- Fc1cccnc1CNc1ncnc2sc(CC3CCCC(Cc4nc5ccccc5[nH]4)N3)nc12 (stereo not shown) [Compound 71, 2-({6-[(1H-1,3-benzodiazol-2-yl)methyl]piperidin-2-yl}methyl)-N-[(3-fluoropyridin-2-yl)methyl]-[1,3]thiazolo[5,4-d]pyrimidin-7-amine] — lower, 5.2
- Fc1cccnc1CNc1ncnc2sc(CCNCCc3ncc(-c4ccc(Cl)s4)[nH]3)nc12 [Compound 72, 2-[2-({2-[5-(5-chlorothiophen-2-yl)-1H-imidazol-2-yl]ethyl}amino)ethyl]-N-[(3-fluoropyridin-2-yl)methyl]-[1,3]thiazolo[5,4-d]pyrimidin-7-amine] — lower, 6.4
- Cc1nc(CCNCCc2nc3c(NCc4ncccc4F)nccc3s2)[nH]c1C [Compound 73, 2-(2-{[2-(4,5-dimethyl-1H-imidazol-2-yl)ethyl]amino}ethyl)-N-[(3-fluoropyridin-2-yl)methyl]-[1,3]thiazolo[4,5-c]pyridin-4-amine] — higher, 7.6
- Fc1cccnc1CNc1nccc2oc([C@@H](F)CNCCc3nc4ccccc4[nH]3)nc12 [Compound 75, 2-[(1 S)-2-{[2-(1H-1,3-benzodiazol-2-yl)ethyl]amino}-1-fluoroethyl]-N-[(3-fluoropyridin-2-yl)methyl]-[1,3]oxazolo[4,5-c]pyridin-4-amine] — higher, 7.1
- Cc1nc(CCNCCc2nc3c(NCc4ncccc4F)nc(O)nc3s2)[nH]c1C [Compound 76, 2-(2-{[2-(4,5-dimethyl-1H-imidazol-2-yl)ethyl]amino}ethyl)-7-{[(3-fluoropyridin-2-yl)methyl]amino}-[1,3]thiazolo[5,4-d]pyrimidin-5-ol] — higher, 8.1
- Fc1cccnc1CNc1ncnc2sc([C@H](F)CNCCc3nc4ccccc4[nH]3)nc12 [Compound 77, 2-[(1R)-2-{[2-(1H-1,3-benzodiazol-2-yl)ethyl]amino}-1-fluoroethyl]-N-[(3-fluoropyridin-2-yl)methyl]-[1,3]thiazolo[5,4-d]pyrimidin-7-amine] — higher, 7.8
- Fc1cccnc1CNc1nccc2oc(C(F)(F)CNCCc3nc4ccccc4[nH]3)nc12 [Compound 81, 2-(2-{[2-(1H-1,3-benzodiazol-2-yl)ethyl]amino}-1,1-difluoroethyl)-N-[(3-fluoropyridin-2-yl)methyl]-[1,3]oxazolo[4,5-c]pyridin-4-amine] — lower, 6.3
- Fc1cccnc1CNc1nccc2sc([C@H](F)CNCCc3nc4ccccc4[nH]3)nc12 [Compound 82, 2-[(1R)-2-{[2-(1H-1,3-benzodiazol-2-yl)ethyl]amino}-1-fluoroethyl]-N-[(3-fluoropyridin-2-yl)methyl]-[1,3]thiazolo[4,5-c]pyridin-4-amine] — lower, 6.4

`Cc1nc(Cc2ccccc2)c(CNCCc2nc3c(NCc4ncccc4F)nccc3o2)[nH]1` [Compound 78, 2-(2-{[(4-benzyl-2-methyl-1H-imidazol-5-yl)methyl]amino}ethyl)-N-[(3-fluoropyridin-2-yl)methyl]-[1,3]oxazolo[4,5-c]pyridin-4-amine] gave a pEC50 of less than 5.
For `Fc1cccnc1CNc1ncnc2sc(CCNCCc3ncc(-c4ccncc4)[nH]3)nc12` [Compound 79, N-[(3-fluoropyridin-2-yl)methyl]-2-[2-({2-[5-(pyridin-4-yl)-1H-imidazol-2-yl]ethyl}amino)ethyl]-[1,3]thiazolo[5,4-d]pyrimidin-7-amine], the pEC50 was less than 5.
With `O=C(NCc1ccc2[nH]c(CCNCCc3nc4c(NCc5ncccc5F)ncnc4s3)nc2c1)c1ccc2c(c1)C1(OC2=O)c2ccc(O)cc2Oc2cc(O)ccc21` [Compound 80] the pEC50 was less than 5.
